Test results from patent US20120135959A1, “Metalloprotein inhibitors containing nitrogen based ligands” (priority 2006, published 2012).
Read-outs that look alike come from different tables or passages of the source.

How the values were obtained:
[1] = target: T1, MMP-3 (Homo sapiens, UniProt P08254); experiment: biochemical; type: biochemical
T1 construct: purchased Biomol Research Laboratories

[2] = target: recombinant anthrax lethal factor (Bacillus anthracis, UniProt P15917); experiment: biochemical; type: biochemical
[3] = target: T2, soybean lipoxygenase (sbLO) (Glycine max, UniProt P08170); experiment: Lipoxygenase assay (absorbance at 234 nm, linoleic acid substrate); type: biochemical; conditions: 3 hours preincubation; for inhibition at 300 µM: reference compounds, read-out: inhibition of product formation relative to control (no inhibitor)
T2 construct: purchased Sigma-Aldrich
T2 sequence (P08170 1-839): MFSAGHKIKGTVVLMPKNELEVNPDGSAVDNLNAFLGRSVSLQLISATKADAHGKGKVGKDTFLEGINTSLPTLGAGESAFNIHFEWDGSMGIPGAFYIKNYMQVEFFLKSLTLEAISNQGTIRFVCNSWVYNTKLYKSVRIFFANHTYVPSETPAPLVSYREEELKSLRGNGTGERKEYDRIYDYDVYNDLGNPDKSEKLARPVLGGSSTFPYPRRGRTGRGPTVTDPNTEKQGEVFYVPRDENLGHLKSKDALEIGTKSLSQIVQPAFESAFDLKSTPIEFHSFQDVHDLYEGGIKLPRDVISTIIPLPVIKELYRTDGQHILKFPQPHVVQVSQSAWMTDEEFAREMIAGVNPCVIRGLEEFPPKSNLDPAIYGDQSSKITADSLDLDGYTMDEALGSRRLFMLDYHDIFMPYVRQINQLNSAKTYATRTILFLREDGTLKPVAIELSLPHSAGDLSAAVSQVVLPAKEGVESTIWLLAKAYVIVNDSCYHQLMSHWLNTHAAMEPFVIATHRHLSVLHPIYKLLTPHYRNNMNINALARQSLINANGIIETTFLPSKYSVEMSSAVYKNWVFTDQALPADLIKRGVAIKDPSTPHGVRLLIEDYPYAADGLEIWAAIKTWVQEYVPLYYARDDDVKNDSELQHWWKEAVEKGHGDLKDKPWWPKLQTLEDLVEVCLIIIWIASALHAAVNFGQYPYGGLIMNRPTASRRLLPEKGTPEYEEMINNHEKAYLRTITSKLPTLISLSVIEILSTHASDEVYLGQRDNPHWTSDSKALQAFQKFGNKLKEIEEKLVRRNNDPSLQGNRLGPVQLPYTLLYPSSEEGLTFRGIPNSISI

[4] = target: T3, MMP-1 (Homo sapiens, UniProt P03956); conditions: for potency v. AHA: based on MMP-1 IC50; for IC50: read-out: MMP-1 IC50, fluorescence-based assay, pH 7.5, 1 h preincubation at 37° C., at least three independent experiments, spread in brackets
T3 sequence (P03956 100-469): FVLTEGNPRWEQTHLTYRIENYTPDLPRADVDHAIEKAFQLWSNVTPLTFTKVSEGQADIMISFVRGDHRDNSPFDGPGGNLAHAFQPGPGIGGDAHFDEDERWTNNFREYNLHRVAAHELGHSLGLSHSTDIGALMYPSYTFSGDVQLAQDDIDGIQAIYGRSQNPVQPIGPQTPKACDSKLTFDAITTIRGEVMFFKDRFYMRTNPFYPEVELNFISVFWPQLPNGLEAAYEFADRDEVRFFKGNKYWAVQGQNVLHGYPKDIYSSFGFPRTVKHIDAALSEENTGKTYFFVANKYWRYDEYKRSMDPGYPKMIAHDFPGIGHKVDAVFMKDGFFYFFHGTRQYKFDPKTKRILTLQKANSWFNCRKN

[5] = target: T3, MMP-1; experiment: biochemical

T1 sequence (P08254 100-477): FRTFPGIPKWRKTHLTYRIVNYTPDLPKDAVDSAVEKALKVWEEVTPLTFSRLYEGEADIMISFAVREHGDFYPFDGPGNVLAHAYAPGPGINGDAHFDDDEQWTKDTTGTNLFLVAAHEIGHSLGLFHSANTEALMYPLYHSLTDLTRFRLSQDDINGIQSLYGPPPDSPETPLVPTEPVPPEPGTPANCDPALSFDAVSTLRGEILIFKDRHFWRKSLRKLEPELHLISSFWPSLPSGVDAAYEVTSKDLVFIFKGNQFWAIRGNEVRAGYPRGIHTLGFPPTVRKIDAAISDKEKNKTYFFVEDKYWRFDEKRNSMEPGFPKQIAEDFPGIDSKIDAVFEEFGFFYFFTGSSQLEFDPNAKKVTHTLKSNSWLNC
Chain of recombinant anthrax lethal factor (P15917 34-809 limits assumed): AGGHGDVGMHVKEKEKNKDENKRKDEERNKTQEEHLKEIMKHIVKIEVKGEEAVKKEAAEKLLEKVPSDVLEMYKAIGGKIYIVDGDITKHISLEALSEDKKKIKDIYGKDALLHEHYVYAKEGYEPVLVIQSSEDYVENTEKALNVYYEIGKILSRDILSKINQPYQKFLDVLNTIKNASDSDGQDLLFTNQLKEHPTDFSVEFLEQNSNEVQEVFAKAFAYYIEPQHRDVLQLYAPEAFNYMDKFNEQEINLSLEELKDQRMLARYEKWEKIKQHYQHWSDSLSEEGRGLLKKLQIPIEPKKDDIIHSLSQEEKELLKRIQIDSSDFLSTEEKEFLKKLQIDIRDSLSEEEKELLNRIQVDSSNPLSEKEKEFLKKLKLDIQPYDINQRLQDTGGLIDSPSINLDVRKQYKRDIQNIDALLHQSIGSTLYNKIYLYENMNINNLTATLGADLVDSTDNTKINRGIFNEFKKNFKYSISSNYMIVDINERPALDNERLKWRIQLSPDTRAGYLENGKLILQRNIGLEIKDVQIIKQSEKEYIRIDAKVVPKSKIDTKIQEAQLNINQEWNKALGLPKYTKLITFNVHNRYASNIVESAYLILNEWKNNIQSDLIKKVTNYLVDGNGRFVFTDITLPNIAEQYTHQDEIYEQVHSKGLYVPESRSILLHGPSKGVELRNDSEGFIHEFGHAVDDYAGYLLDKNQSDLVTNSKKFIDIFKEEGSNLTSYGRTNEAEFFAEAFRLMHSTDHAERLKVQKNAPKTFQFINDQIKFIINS

| Compound | IC50 [1] | potency v. AHA [1] | IC50 [2] | inhibition of lipoxygenase activity ([3]; ZBGs, method gives chelator final concentration 100 μM) | potency v. AHA [4] | IC50 [5] | IC50 [4] | IC50 ([1]; pH 6, read-out: MMP-3 IC50) | IC50 ([2]; pH 7, read-out: LF IC50) | inhibition at 300 µM [3] |
| --- | --- | --- | --- | --- | --- | --- | --- | --- | --- | --- |
| O=C(O)c1ccccn1 [ZBG 1, picolinic acid] | 0.181 mM | 139-fold | 3.5 mM | 2.3% | 17-fold | 2.5 mM |  |  |  |  |
| c1ccc(CNCc2ccccn2)nc1 [ZBG 5, di(2-picolyl)amine] |  |  |  |  |  |  | 0.063 mM |  |  |  |
| O=C(O)c1cccc(C(=O)O)n1 [ZBG 3, dipicolenic acid] |  | 4-fold |  |  | 3-fold |  | 13.5 mM | 6.1 mM | 2.69 mM |  |
| C1CNCCNCCNCCN1 [ZBG 4, cyclen] |  | 163-fold |  |  | 98-fold |  | 0.43 mM | 0.154 mM | 5.7 mM |  |
| CC(=O)NO [AHA, acetohydroxamic acid, reference compound] | 25.1 mM |  |  |  |  | 41.6 mM |  |  | 11.4 mM | 99% |
| O=C(O)CNCC(=O)O [ZBG 6, aminodiacetic acid] |  | 139-fold |  |  | 82-fold |  | 0.51 mM | 0.18 mM | 0.93 mM |  |
| di(2-picolyl)amine [ZBG 5] |  | 185-fold |  |  | 660-fold |  |  | 0.136 mM | 0.37 mM |  |
| C1CNCCNCCN1 [ZBG 2] |  | 19-fold |  |  | 7-fold |  | 5.69 mM | 1.35 mM | 1.27 mM |  |
| Cc1occc(=O)c1O [maltol] |  |  |  |  |  |  |  |  |  | 70% |
